Reference: paper PMC5215691 (2017)

What was measured:
[1] = tested on: FAM-labeled KBA 3-1 (DNA, aptamer) CGGAAGCGCGCCACCCCATCGGCGGGCGCGAAGCTTGCG; test: RGO fluorescence quenching/recovery; settings: 1X PBS pH 8.5, room temperature, 100 nM aptamer, 0.1 mg/mL RGO
[2] = tested on: KBA 2 (DNA, aptamer) ATGCGGATCCCGCGCGACCAACGGAAGCGCGCCACCCCATCGGCGGCGCGAAGCTTGCGC; test: ELONA (biotin-aptamer, streptavidin-HRP); settings: for binding: immobilised compound, 1 μM aptamer
[3] = tested on: KBA 3-1 (DNA, aptamer) CGGAAGCGCGCCACCCCATCGGCGGGCGCGAAGCTTGCG; test: ELONA (biotin-aptamer, streptavidin-HRP); settings: for binding: immobilised compound, 1 μM aptamer
[4] = tested on: KBA 1 (DNA, aptamer) ATGCGGATCCCGCGCCGACGTCAGAGAGGCGCGCTGGTTTGCACCGCGCGAAGCTTGCGC; test: ELONA (biotin-aptamer, streptavidin-HRP); settings: not given; 1X PBS/PBST (concentrations not given); immobilised compound (amide bond on NOS plate); apparent
[5] = tested on: KBA 1-1 (DNA, aptamer) ATGCGGATCCCGCGCCGACGTCAGAGAGGCGCGCTGGTTTGCAC; test: ELONA (biotin-aptamer, streptavidin-HRP); settings: not given; 1X PBS/PBST (concentrations not given); immobilised compound (amide bond on NOS plate); apparent
[6] = tested on: KBA 1-2 (DNA, aptamer) CGCGCCGACGTCAGAGAGGCGCG; test: ELONA (biotin-aptamer, streptavidin-HRP); settings: not given; 1X PBS/PBST (concentrations not given); immobilised compound (amide bond on NOS plate); apparent
[7] = tested on: KBA 2-1 (DNA, aptamer) CGGAAGCGCGCCACCCCATCGGCGGCGCGAAGCTTGCG; test: ELONA (biotin-aptamer, streptavidin-HRP); settings: not given; 1X PBS/PBST (concentrations not given); immobilised compound (amide bond on NOS plate); apparent
[8] = tested on: KBA 2-2 (DNA, aptamer) CGCCACCCCATCGGCGGCG; test: ELONA (biotin-aptamer, streptavidin-HRP); settings: not given; 1X PBS/PBST (concentrations not given); immobilised compound (amide bond on NOS plate); apparent
[9] = tested on: KBA 3 (DNA, aptamer) ATGCGGATCCCGCGCACCAACGGAAGCGCGCCACCCCATCGGCGGGCGCGAAGCTTGCGC; test: ELONA (biotin-aptamer, streptavidin-HRP); settings: not given; 1X PBS/PBST (concentrations not given); immobilised compound (amide bond on NOS plate); apparent
[10] = tested on: KBA 3-2 (DNA, aptamer) CGCCACCCCATCGGCGGGCG; test: ELONA (biotin-aptamer, streptavidin-HRP); settings: not given; 1X PBS/PBST (concentrations not given); immobilised compound (amide bond on NOS plate); apparent
[11] = not given, 1X PBS/PBST (concentrations not given), immobilised compound (amide bond on NOS plate), apparent

binding [2] | binding [3] | binding ([1]; 1 μM antibiotic) | Structure (SMILES) | further results
weak | weak |  | CC1(C)S[C@@H]2[C@H](NC(=O)[C@H](N)c3ccccc3)C(=O)N2[C@H]1C(=O)O | binding ([1]; 1 μM ampicillin): no
weak | weak | weak | CN[C@@H]1[C@H](O[C@H]2[C@H](O[C@H]3[C@H](O)[C@@H](O)[C@H](N=C(N)N)[C@@H](O)[C@@H]3N=C(N)N)O[C@@H](C)[C@]2(O)CO)O[C@@H](CO)[C@H](O)[C@H]1O | 
weak | weak | weak | CN[C@@H]1[C@H](O[C@H]2[C@H](O[C@H]3[C@H](O)[C@@H](O)[C@H](N=C(N)N)[C@@H](O)[C@@H]3N=C(N)N)O[C@@H](C)[C@]2(O)C=O)O[C@@H](CO)[C@H](O)[C@H]1O | 
weak | weak | weak | CN(C)[C@@H]1C(=O)C(C(N)=O)=C(O)[C@@]2(O)C(=O)C3=C(O)c4c(O)cccc4[C@@](C)(O)[C@H]3C[C@@H]12 | 
 |  |  | NC[C@H]1O[C@H](O[C@H]2[C@H](O)[C@@H](O[C@H]3O[C@H](CO)[C@@H](O)[C@H](N)[C@H]3O)[C@H](N)C[C@@H]2N)[C@H](O)[C@@H](O)[C@@H]1O | binding ([1]; 1 pM to 1 μM kanamycin): yes; Kd^app [4]: 268 ± 20.8 nM; Kd^app [5]: 268 ± 26.7 nM; Kd^app [6]: 669 ± 10.7 nM; Kd^app [2, 11]: 34.7 ± 35.6 nM; Kd^app [7]: 182 ± 57.2 nM; Kd^app [8]: 564 ± 92.5 nM; Kd^app [9]: 341 ± 12.8 nM; Kd^app [3, 11]: 92.3 ± 29.1 nM; Kd^app [10]: 239 ± 52.5 nM
